The CheMixHub ionic liquid set
± gives the uncertainty stated by the source.

Experiment: xn = mol fraction of the nth substance listed

CCCC[N+](CCCC)(CCCC)CCCC.[Br-] + CCCCCCCCCCCC[N+](C)(C)C.[Br-] + O
viscosity [mPa·s], 100 kPa
Details	x2 = 5.422e-05, x1 = 0.0001802	x2 = 0.0001084, x1 = 0.0001801	x2 = 0.0001626, x1 = 0.0001801	x2 = 0.0002169, x1 = 0.0001801	x2 = 0.0002711, x1 = 0.0001801	x2 = 0.0003252, x1 = 0.0001801	x2 = 0.0003794, x1 = 0.0001801	x2 = 0.0004336, x1 = 0.0001801	x2 = 0.0004878, x1 = 0.0001801	x2 = 0.000542, x1 = 0.0001801
293.15 K	1.056 ± 0.027	1.057 ± 0.027	1.059 ± 0.027	1.061 ± 0.027	1.061 ± 0.027	1.062 ± 0.027	1.062 ± 0.027	1.063 ± 0.027	1.063 ± 0.027	1.063 ± 0.027
298.15 K	0.939 ± 0.027	0.942 ± 0.027	0.943 ± 0.027	0.945 ± 0.027	0.946 ± 0.027	0.946 ± 0.027	0.948 ± 0.027	0.949 ± 0.027	0.95 ± 0.027	0.951 ± 0.027
303.15 K	0.824 ± 0.027	0.825 ± 0.027	0.826 ± 0.027	0.826 ± 0.027	0.827 ± 0.027	0.827 ± 0.027	0.828 ± 0.027	0.828 ± 0.027	0.828 ± 0.027	0.828 ± 0.027
308.15 K	0.742 ± 0.027	0.744 ± 0.027	0.745 ± 0.027	0.746 ± 0.027	0.746 ± 0.027	0.746 ± 0.027	0.747 ± 0.027	0.747 ± 0.027	0.747 ± 0.027	0.747 ± 0.027
313.15 K	0.675 ± 0.027	0.676 ± 0.027	0.677 ± 0.027	0.677 ± 0.027	0.678 ± 0.027	0.678 ± 0.027	0.678 ± 0.027	0.678 ± 0.027	0.678 ± 0.027	0.679 ± 0.027
318.15 K	0.62 ± 0.026	0.621 ± 0.026	0.621 ± 0.027	0.621 ± 0.026	0.622 ± 0.026	0.622 ± 0.026	0.622 ± 0.026	0.622 ± 0.026	0.622 ± 0.026	0.623 ± 0.026

CCC[P+](c1ccccc1)(c1ccccc1)c1ccccc1.[Br-] + O=S=O + OCCO
100 kPa
Details	viscosity [mPa·s]
303.15 K, x2 = 0.01565, x3 = 0.9603	20.6 ± 0.9
313.15 K, x2 = 0.01166, x3 = 0.9642	17 ± 0.7
323.15 K, x2 = 0.009018, x3 = 0.9668	14.1 ± 0.6
333.15 K, x2 = 0.007838, x3 = 0.968	11.6 ± 0.5
343.15 K, x2 = 0.006951, x3 = 0.9688	10.5 ± 0.4

CCC[N+]1(C)CCCC1.N#C[N-]C#N + CCC[N+]1(C)CCCC1.O=S(=O)([N-]S(=O)(=O)C(F)(F)F)C(F)(F)F
333.15 K, 101 kPa
Details	electrical conductivity [S/m]	viscosity [mPa·s]
x1 = 0.25	1.38 ± 0.14	16.8 ± 1.7
x1 = 0.75	2.72 ± 0.27	13.2 ± 1.4

CCCCCC[n+]1ccn(C)c1.O=S(=O)([N-]S(=O)(=O)C(F)(F)F)C(F)(F)F + CO
298.15 K, 100 kPa
Details	electrical conductivity [S/m]
x1 = 0.02978	1.7 ± 0.2
x1 = 0.04557	2.1 ± 0.2
x1 = 0.06683	2.3 ± 0.2
x1 = 0.09663	2.2 ± 0.2
x1 = 0.1426	1.9 ± 0.2

CCCCCC[n+]1ccn(C)c1.[Br-] + C[NH2+]CCC=C1c2ccccc2CCc2ccccc21.[Cl-] + O
viscosity [mPa·s], 100 kPa
Details	288.15 K	298.15 K	308.15 K	318.15 K
x2 = 0, x1 = 0.0001802	1.159 ± 0.044	0.926 ± 0.043	0.762 ± 0.043	0.645 ± 0.042
x2 = 0, x1 = 0.0007203	1.165 ± 0.044	0.934 ± 0.043	0.77 ± 0.043	0.643 ± 0.042
x2 = 0, x1 = 0.00126	1.171 ± 0.044	0.942 ± 0.043	0.776 ± 0.043	0.66 ± 0.043

CCCCCC[n+]1ccn(C)c1.O=S(=O)([N-]S(=O)(=O)C(F)(F)F)C(F)(F)F + CC(C)=O
298.15 K, 100 kPa
Details	electrical conductivity [S/m]
x1 = 0.0527	2.6 ± 0.3
x1 = 0.07996	3.1 ± 0.3
x1 = 0.1149	3.1 ± 0.3
x1 = 0.163	2.4 ± 0.2
x1 = 0.2325	2 ± 0.2

CCCCCCCC[P+](CC)(CC)CC.O=[N+]([O-])c1c[n-]cn1 + COCCOCCOCCOCCOC
viscosity [mPa·s], 100 kPa
Details	x1 = 0.599	x1 = 0.699	x1 = 0.9	x1 = 1
278.15 K	125 ± 4	210 ± 8	–	1270 ± 91
288.15 K	–	114 ± 3	–	569 ± 33
298.15 K	–	–	180 ± 7	–

CCCCCC[n+]1ccn(C)c1.[Br-] + O
viscosity [mPa·s]
Details	288.15 K	298.15 K	308.15 K	318.15 K
100 kPa, x1 = 0.0001802	1.159 ± 0.044	0.926 ± 0.043	0.762 ± 0.043	0.645 ± 0.042
100 kPa, x1 = 0.0007203	1.165 ± 0.044	0.934 ± 0.043	0.77 ± 0.043	0.643 ± 0.042
100 kPa, x1 = 0.00126	1.171 ± 0.044	0.942 ± 0.043	0.776 ± 0.043	0.66 ± 0.043
100 kPa, x2 = 0.9008	–	6.89 ± 0.35	–	–
101 kPa, x1 = 1.982e-05	1.136 ± 0.024	–	0.722 ± 0.016	–
101 kPa, x1 = 3.243e-05	1.138 ± 0.024	0.891 ± 0.019	0.723 ± 0.016	–
101 kPa, x1 = 6.667e-05	1.142 ± 0.024	0.896 ± 0.019	0.726 ± 0.016	–
101 kPa, x1 = 0.001844	–	0.948 ± 0.013	–	–
101 kPa, x1 = 0.003654	–	1.005 ± 0.014	–	–
101 kPa, x1 = 0.005425	–	1.053 ± 0.014	–	–
101 kPa, x1 = 0.007153	–	1.101 ± 0.014	–	–

CCCC[n+]1ccn(C)c1.COS(=O)(=O)[O-] + CCCC[n+]1ccn(C)c1.F[B-](F)(F)F
101 kPa
Details	viscosity [mPa·s]
298.15 K, x2 = 0.4358	161.7 ± 6.9
298.15 K, x2 = 0.5118	158.9 ± 6.4
298.15 K, x2 = 0.6026	146.2 ± 5.5
298.15 K, x2 = 0.9447	110.8 ± 3.4
299.15 K, x2 = 0	202.9 ± 9.9
299.15 K, x2 = 0.1209	181.8 ± 8.2
301.15 K, x2 = 0.1209	162.8 ± 6.8
301.15 K, x2 = 0.2142	158.7 ± 6.5
301.15 K, x2 = 0.4358	136.4 ± 4.9
301.15 K, x2 = 0.6934	117 ± 3.6
301.15 K, x2 = 0.7813	109.5 ± 3.2
302.15 K, x2 = 0	171.4 ± 7.4
302.15 K, x2 = 0.3057	144.1 ± 5.4
302.15 K, x2 = 0.5412	122.2 ± 3.9
302.15 K, x2 = 0.6026	117.5 ± 3.7
302.15 K, x2 = 0.648	113.8 ± 3.4
303.15 K, x2 = 0.406	127.9 ± 4.3
303.15 K, x2 = 0.5118	118.6 ± 3.7
304.15 K, x2 = 0.3057	129.6 ± 4.4
304.15 K, x2 = 0.5412	109.7 ± 3.2
304.15 K, x2 = 0.6934	99.9 ± 2.6
305.15 K, x2 = 0.1209	131.1 ± 4.5
305.15 K, x2 = 0.2142	127.8 ± 4.3
305.15 K, x2 = 0.6026	100.3 ± 2.6
305.15 K, x2 = 0.9005	82.8 ± 1.7
305.15 K, x2 = 0.9447	78.2 ± 1.6
307.15 K, x2 = 0.4358	99.4 ± 2.6
307.15 K, x2 = 0.6026	90.9 ± 2.2
308.15 K, x2 = 0.1209	112.4 ± 3.2
308.15 K, x2 = 0.406	98.7 ± 2.7
308.15 K, x2 = 0.9447	68 ± 1.1

CCn1cc[n+](CC)c1.O=S(=O)([N-]S(=O)(=O)C(F)(F)F)C(F)(F)F + O
100 kPa, x2 = 0.2772
Details	viscosity [mPa·s]
318.15 K	11.04 ± 0.1
358.15 K	4.96 ± 0.04
